Measurements as given in patent US10562939B2, “Method for significantly increasing lentiviral production” (priority 2016, dated 2020).

How the values were obtained:
[1] = molecular target: T1, interaction between HIV-1 MA and arginyl-tRNA synthetase (RRS) (Homo sapiens, UniProt P54136); assay: Co-immunoprecipitation of RRS with HIV-1 MA (control); type: binding
T1 construct: endogenous in cells; host or cells: 293A-MA-FH cells (RRS endogenous; MA-flag stably expressed)
T1 sequence (P54136 1-660): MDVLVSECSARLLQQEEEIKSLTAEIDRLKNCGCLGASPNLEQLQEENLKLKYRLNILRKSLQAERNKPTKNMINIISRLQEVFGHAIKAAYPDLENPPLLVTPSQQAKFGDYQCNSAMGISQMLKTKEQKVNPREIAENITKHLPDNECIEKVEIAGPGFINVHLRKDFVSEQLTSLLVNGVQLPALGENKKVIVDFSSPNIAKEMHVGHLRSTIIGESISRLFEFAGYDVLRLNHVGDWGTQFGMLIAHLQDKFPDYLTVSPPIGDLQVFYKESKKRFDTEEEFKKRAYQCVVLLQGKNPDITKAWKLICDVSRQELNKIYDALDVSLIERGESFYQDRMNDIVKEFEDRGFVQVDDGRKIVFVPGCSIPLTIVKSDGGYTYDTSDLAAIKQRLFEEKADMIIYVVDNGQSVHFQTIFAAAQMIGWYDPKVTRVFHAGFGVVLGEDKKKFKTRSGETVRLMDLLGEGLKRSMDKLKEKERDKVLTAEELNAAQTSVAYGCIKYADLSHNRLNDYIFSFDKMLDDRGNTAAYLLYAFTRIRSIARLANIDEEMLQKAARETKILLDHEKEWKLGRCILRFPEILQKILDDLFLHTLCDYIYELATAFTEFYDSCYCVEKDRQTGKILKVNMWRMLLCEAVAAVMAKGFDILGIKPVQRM
Method: As a control, the interaction between MA and another MA-interacting protein, arginyl-tRNA synthetase (RRS), a subunit of the aminoacyl-tRNA synthetase complex, was also evaluated. The coimmunoprecipitation of RRS and HIV-1 MA was not affected by addition of myristic acid (FIG. 1D).

[2] = tested on: HIV-1 virion production in 293A cells; assay: Virus-like particle (VLP) detection, 293A cells transfected with pNL4.3luc, CA Western blot; conditions: 20-40 micromolar, 48 hours, FIG. 4C
human HO-2 = molecular target: T2, human HO-2 (Homo sapiens, UniProt P30519); assay: Fatty acid binding to HO-2 (crystal structure); conditions: FIG. 2E
T2 construct: The HO-2 gene fragment encoding amino acid residues 30-242 was cloned into a pET28a vector; made in house; host or cells: Escherichia coli BL21 (DE3) Star
T2 sequence (P30519 30-242): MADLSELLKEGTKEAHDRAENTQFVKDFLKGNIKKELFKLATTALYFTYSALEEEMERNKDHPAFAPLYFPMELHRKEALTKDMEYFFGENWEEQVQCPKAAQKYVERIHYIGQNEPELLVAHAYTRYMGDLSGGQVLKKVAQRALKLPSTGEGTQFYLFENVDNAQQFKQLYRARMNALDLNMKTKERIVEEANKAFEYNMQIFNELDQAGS
Method: To make the myristate complex, sodium myristate was dissolved in water at 50° C., and mixed with 20 mg/ml protein solution and incubated at 37° C. water bath for 30 min. The complex solution was then used to set up crystallization by mixing with (0.1 M Bis-Tris, (pH 5.5), 28% (w/v) polyethylene glycol 550 monomethyl ether, and 5 mM MgCl2). Crystals were directly flash-frozen in liquid nitrogen.
The laurate complex crystals were obtained by soaking apo crystals in well solution with 5 mM sodium laurate overnight and transferred to well solution with 35% (w/v) of precipitant before flash-frozen in liquid nitrogen. The crystals belong to space group P212121 and there are four protein molecules in the asymmetric unit.
X-ray diffraction data sets were collected at beamline 24-ID-E of the Advanced Photon Source (APS). The data were processed with the HKL package (Otwinowski and Minor, 1997). The structures were solved by molecular replacement using entry 2Q32 from the Protein Data Bank as the model. The myristate and laurate were manually added with Coot (Emsley and Cowtan, 2004) and refined with Phenix (Adams et al., 2002).
The crystal structure was also determined at 2.1 Å resolution of human HO-2 in complex with the C12 fatty acid laurate (FIG. 2E, Table 1B). The crystal was isomorphous to that of the myristate complex. […]

C=CC1=C(C)C2=Cc3c(C=C)c(C)c4[n]3[Sn]([Cl])([Cl])[n]3c(c(C)c(CCC(=O)O)c3=CC3=NC(=C4)C(C)=C3CCC(=O)O)=CC1=N2 [SnPPIX, tin protoporphyrin IX dichloride]
interaction between HIV-1 MA and RRS ([1]; increasing concentrations of SnPPIX, FIG. 4B): no effect
virus yield (CA levels in virions) [2]: dramatic increases in virus yield

CCCCCCCCCCCC(=O)O [laurate]
binding to HO-2 (human HO-2): could indeed bind

CCCCCCCCCCCCCC(=O)O [myristic acid]
coimmunoprecipitation of RRS and HIV-1 MA ([1]; myristic acid added to cell lysates, FIG. 1D): not affected
